For test [1], the target named is T1, PI3K-α kinase (p110α/p85α) (Homo sapiens, UniProt P42336).
T1 construct: purchased Invitrogen PV4788
Briefly: Determination of PI3K kinase activity (ADP Transcreener, fluorescence polarization). It counts as biochemical. The settings on record: ATP 10 μM. Background: Fluorescence polarisation rises when a labelled molecule tumbles more slowly, as on binding a larger partner.

The target of test [2] is T2, PI3K-δ kinase (p110δ/p85α) (Homo sapiens, UniProt O00329).
T2 construct: purchased Millipore 14-604M
Described as above. It counts as biochemical. The settings on record: Table 1; ATP 10 μM; read-out: PI3K-δ/nM (IC50 of inhibitory activity against PI3K kinase).

In test [3] the target is T3, PI3K-β kinase (p110β/p85α) (Homo sapiens, UniProt P42338).
T3 construct: purchased Millipore 14-603
The description is as above. It counts as biochemical. The settings on record: Table 1; ATP 10 μM; read-out: PI3K-β/nM (IC50 of inhibitory activity against PI3K kinase).

A further test relates to NIH3T3 cells. Nature of the test: Cytotoxicity by MTT assay, NIH3T3. The settings on record: cytotoxicity class, read-out: NIH3T3 cell (IC50/nM). It counts as cell-based. As for the experimental part: The MTT assay procedure and steps were carried out as well known to those skilled in the art, and all the reagents used in the methods were commercially available.
(§1) The cells in logarithmic growth phase were digested with 0.25% EDTA trypsin (Gibco, 25200-056) and resuspended in fresh medium. 90 μL of the cell suspension was inoculated into a 96-well cell culture plate (BD Faclon 353072) with a suitable cell density and cultured at 37° C. under 5% CO2. After the cells adhered, 10 μL of the test compound at different concentrations (0.0046-10 μM, 8 concentration points) was added and incubated for another 72 h. 10 μL of MTT (5 mg/mL PBS solution) (Sigma, M5655) was added to react for 4 h. The absorbance at 492 nm was measured by using Thermo Scientific Multiskan MK3 microplate reader and IC50 was calculated using XLFIT 5.0 software (UK IDBS).

In a further test the target is T4, PI3K-γ kinase (p110γ) (Homo sapiens, UniProt P48736).
T4 construct: purchased Invitrogen PV4786
Nature of the test: Determination of PI3K kinase activity (ADP Transcreener, fluorescence polarization). The note with it: Table 1; ATP 10 μM; read-out: PI3K-γ/nM (IC50 of inhibitory activity against PI3K kinase). It counts as biochemical. In outline:
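Each 25 μL reaction held PI3K enzyme (p110α/p85α 3 ng, p110β/p85α 60 ng, p110δ/p85α 90 ng, or p110γ 100 ng), 10 μM ATP, 30 μM PIP2:PS and 2% DMSO, incubated 1 h at 25 °C. Compounds were tested in duplicate across a 3-fold series, 0.00046–1 μM as prepared. ADP was detected by Transcreener fluorescence polarization, quantified against an ADP/ATP standard curve, and IC50 fitted.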

A further test concerns T47D cells. Nature of the test: Cell inhibitory activity detected by MTT assay, T47D. It counts as cell-based. The note with it: 72 h, read-out: T47D cell (IC50/nM), cell growth inhibition. The procedure:
as §1, with “The MTT assay procedure and steps were carried out as well known to those skilled in the art, and all the reagents used in the methods were commercially available. The cells” for “The cells”, “(UK IDBS). T47D cell culture medium: RPMI-1640 medium (Hyclone SH30809.01B)+10% FBS (Gibco 10099-141)” for “(UK IDBS).”

A further test has as its system MCF-7 cells. Nature of the test: Cell inhibitory activity detected by MTT assay, MCF-7. It counts as cell-based. The settings on record: Homo sapiens, MCF7, 72 h, read-out: MCF-7 cell (IC50/nM), cell growth inhibition. The procedure:
as §1, with “The MTT assay procedure and steps were carried out as well known to those skilled in the art, and all the reagents used in the methods were commercially available. The cells” for “The cells”, “(UK IDBS). MCF-7 cell culture medium: DMEM medium (Hyclone SH30243.01B+10% FBS (Gibco 10099-141)” for “(UK IDBS).”
(In general: Formazan colour is commonly taken as a measure of viable cells.)

The subject of test [4] is Akt phosphorylation (Ser473-p-Akt) in PC-3 cells. Briefly: Inhibition of p-Akt phosphorylation level in PC-3 cells (cell level fluorescence imaging). It counts as cell-based. The note with it: Akt phosphorylation in PC-3 cells, 2 hours incubation; read-out: PC-3 cell (IC50/nM). As for the experimental part: This experiment was performed by cell level fluorescence image processing method.
Triton X-100: 10% aqueous Triton X-100 solution (Sigma T8787-100 mL) was prepared, stored at 4° C. and diluted by 1:100 to give 0.1% Triton X-100 aqueous solution for use in the experiment.
Prodium Iodide (PI): 1 mg/mL (1.5 mM) PI (Sigma P4170) storage solution was prepared with PBS and stored at −25° C. in the dark. For use, the PI storage solution was diluted with PBS by 1:1000 to give a 1.5 μM solution and used in dark.
PC-3 cells in logarithmic growth phase were digested with 0.25% EDTA trypsin. 3000 cells/90 μL were seeded in a 96-well plate (BD 356692) and cultured at 37° C. and 5% CO2. After the cells adhered, 10 μL of the compound to be tested which was gradiently diluted 3 times (0.0046 to 10 μM, 8 concentration points, in duplicate) was added and incubated for 2 hours, followed by addition of 100 μL of 4% paraformaldehyde (DINGGUO AR-0211) and incubated at room temperature for 45 minutes. Then 100 μL of 0.1% Triton X-100 solution was added and incubated for another 30 minutes.
Triton X-100 solution was removed and the cells were rinsed with 200 μl of PBS twice (300 rpm vibration for 1 minute). The blocking solution (1% BSA solution in PBS) (Genview FA016-100G) was added and incubated at room temperature for 2 hours. The plate was rinsed with PBS once (300 rpm, 1 min) and 30 μL of Ser473-p-Akt antibody (cell signaling 4060L) diluted with 0.1% BSA was added and incubated overnight at 4° C. Ser473-p-Akt antibody was removed and the plate was rinsed with PBS twice (300 rpm, 1 minute). 35 μL of Alexa Flour 488 donkey anti-rabbit IgG (Invitrogen A21206) was added and incubated at room temperature for 1.5 hours. The plate was rinsed with PBS twice (300 rpm, 1 minute) and 35 μL of 1.5 μM PI was added and incubated at room temperature for 0.5 h. The fluorescence intensity was measured with Acumen eX3 (TTP LabTech).
10 μM BEZ235 (Selleck S1009) treatment group was negative control and DMSO treatment group was positive control. Inhibition ratio %=[1−(the mean value of the fluorescence intensity of the compound to be tested−the mean value of the fluorescence intensity of the negative control group)/(the mean value of the fluorescence intensity of the positive control group−the mean value of the fluorescence intensity of the negative control group)]×100%

Where [5] appears, read: Table 1, read-out: PI3K-α/nM (IC50 of inhibitory activity against PI3K kinase).

This passage reports IC50 results from US10227324B2 (Shanghai Haiyan Pharmaceutical Technology Co., Ltd., priority 2014, dated 2019).

Each structure is given as a SMILES string. Where two headings read alike, the source gives them in different places.

T2 sequence (O00329 whole entry): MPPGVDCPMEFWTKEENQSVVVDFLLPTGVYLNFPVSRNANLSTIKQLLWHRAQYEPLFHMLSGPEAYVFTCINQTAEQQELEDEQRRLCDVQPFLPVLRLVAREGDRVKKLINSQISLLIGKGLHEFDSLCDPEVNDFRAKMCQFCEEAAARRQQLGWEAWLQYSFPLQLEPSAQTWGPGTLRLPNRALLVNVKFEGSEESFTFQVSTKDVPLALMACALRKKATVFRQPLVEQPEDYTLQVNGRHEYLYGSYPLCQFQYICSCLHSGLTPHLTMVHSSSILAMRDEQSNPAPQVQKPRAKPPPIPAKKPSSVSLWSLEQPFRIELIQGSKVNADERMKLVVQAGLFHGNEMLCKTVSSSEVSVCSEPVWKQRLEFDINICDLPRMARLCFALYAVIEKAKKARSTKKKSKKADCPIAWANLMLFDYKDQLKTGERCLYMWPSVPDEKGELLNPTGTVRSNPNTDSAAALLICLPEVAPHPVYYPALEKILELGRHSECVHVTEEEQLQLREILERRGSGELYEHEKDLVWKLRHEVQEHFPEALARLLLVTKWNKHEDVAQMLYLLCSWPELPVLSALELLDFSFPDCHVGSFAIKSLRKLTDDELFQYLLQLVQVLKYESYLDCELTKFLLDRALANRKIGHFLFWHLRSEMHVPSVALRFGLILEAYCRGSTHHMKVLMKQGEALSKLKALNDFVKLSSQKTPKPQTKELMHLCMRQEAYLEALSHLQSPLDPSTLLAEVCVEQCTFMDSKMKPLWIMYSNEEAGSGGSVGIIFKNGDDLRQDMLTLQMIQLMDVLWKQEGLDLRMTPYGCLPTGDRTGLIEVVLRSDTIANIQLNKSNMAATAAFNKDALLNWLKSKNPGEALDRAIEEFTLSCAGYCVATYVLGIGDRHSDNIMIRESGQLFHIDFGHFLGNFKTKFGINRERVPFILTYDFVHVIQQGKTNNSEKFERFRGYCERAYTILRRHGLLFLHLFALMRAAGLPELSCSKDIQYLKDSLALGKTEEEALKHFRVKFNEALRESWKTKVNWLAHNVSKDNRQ
T2 sequence (P27986 whole entry partner): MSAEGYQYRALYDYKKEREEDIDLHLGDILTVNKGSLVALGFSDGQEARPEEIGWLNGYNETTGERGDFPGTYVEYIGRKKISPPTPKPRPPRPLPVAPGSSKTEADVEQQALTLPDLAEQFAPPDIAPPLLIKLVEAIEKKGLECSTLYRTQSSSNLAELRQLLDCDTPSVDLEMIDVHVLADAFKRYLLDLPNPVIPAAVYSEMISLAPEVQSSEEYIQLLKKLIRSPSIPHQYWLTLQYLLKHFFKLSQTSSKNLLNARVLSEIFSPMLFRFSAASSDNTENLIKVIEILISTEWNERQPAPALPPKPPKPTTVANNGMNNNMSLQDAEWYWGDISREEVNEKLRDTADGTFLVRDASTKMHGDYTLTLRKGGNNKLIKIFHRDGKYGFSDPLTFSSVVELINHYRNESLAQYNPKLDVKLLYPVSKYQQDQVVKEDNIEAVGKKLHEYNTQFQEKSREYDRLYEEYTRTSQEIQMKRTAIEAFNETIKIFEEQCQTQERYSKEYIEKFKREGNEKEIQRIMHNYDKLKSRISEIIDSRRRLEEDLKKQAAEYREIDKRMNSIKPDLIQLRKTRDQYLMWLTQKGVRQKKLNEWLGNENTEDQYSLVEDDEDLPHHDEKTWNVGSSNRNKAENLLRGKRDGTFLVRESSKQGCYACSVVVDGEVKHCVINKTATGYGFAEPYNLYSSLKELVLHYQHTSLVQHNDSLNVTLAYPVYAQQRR
T4 sequence (P48736 whole entry): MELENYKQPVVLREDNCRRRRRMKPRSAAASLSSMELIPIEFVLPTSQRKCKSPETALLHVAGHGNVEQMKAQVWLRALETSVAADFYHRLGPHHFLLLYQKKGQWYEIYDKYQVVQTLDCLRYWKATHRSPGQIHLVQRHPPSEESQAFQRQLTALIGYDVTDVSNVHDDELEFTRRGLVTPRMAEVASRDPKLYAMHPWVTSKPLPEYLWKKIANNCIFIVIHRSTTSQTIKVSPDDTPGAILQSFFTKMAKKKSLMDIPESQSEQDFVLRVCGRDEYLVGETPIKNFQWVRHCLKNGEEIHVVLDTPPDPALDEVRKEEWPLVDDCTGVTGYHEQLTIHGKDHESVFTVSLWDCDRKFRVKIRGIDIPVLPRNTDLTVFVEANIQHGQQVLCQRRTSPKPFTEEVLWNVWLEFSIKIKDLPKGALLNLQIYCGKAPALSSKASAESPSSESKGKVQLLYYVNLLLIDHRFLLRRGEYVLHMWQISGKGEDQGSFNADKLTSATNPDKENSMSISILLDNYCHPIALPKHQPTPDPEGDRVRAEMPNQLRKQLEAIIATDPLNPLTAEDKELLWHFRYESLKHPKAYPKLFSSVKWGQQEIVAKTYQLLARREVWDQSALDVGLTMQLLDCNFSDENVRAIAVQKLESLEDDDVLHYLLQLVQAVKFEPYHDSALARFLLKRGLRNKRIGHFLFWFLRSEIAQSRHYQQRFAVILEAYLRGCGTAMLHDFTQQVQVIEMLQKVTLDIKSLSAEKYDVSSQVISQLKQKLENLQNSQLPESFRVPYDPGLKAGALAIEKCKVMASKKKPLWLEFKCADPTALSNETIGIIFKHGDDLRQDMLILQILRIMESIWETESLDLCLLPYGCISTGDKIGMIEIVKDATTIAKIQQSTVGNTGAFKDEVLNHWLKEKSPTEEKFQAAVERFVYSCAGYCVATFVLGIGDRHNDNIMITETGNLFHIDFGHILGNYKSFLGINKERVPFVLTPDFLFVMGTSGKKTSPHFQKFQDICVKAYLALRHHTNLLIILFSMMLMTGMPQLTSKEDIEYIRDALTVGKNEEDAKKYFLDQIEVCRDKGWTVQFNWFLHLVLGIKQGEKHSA
T3 sequence (P42338 whole entry): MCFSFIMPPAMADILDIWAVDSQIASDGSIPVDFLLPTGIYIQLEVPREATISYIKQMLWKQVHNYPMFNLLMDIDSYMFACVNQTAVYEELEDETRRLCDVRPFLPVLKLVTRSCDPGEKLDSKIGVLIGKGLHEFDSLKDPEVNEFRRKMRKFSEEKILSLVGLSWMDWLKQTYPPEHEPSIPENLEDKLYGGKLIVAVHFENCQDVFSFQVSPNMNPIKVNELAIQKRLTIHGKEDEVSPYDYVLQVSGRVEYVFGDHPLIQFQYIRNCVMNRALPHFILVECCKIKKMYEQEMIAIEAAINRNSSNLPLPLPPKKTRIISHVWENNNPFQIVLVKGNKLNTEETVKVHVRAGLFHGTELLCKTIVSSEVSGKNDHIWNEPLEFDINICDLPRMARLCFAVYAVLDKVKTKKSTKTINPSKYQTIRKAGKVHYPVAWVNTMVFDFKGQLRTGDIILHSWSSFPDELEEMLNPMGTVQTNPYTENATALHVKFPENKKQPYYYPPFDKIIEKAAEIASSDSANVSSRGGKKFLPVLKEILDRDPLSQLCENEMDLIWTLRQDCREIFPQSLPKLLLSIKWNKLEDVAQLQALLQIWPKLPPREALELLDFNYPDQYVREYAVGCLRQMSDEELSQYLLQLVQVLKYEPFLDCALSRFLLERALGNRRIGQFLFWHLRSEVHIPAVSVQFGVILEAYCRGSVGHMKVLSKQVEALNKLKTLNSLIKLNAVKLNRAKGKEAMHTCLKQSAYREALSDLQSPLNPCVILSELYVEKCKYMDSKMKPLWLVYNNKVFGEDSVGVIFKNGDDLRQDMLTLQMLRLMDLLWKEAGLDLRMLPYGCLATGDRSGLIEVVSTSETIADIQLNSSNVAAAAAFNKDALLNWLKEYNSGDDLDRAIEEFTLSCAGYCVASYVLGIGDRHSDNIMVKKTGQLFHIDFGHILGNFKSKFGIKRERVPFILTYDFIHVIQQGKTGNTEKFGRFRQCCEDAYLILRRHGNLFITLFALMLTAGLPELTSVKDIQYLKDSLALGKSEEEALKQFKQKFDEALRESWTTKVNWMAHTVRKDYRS
T3 sequence (P27986 whole entry partner): as the sequence (P27986 whole entry partner) above
T1 sequence (P42336 whole entry): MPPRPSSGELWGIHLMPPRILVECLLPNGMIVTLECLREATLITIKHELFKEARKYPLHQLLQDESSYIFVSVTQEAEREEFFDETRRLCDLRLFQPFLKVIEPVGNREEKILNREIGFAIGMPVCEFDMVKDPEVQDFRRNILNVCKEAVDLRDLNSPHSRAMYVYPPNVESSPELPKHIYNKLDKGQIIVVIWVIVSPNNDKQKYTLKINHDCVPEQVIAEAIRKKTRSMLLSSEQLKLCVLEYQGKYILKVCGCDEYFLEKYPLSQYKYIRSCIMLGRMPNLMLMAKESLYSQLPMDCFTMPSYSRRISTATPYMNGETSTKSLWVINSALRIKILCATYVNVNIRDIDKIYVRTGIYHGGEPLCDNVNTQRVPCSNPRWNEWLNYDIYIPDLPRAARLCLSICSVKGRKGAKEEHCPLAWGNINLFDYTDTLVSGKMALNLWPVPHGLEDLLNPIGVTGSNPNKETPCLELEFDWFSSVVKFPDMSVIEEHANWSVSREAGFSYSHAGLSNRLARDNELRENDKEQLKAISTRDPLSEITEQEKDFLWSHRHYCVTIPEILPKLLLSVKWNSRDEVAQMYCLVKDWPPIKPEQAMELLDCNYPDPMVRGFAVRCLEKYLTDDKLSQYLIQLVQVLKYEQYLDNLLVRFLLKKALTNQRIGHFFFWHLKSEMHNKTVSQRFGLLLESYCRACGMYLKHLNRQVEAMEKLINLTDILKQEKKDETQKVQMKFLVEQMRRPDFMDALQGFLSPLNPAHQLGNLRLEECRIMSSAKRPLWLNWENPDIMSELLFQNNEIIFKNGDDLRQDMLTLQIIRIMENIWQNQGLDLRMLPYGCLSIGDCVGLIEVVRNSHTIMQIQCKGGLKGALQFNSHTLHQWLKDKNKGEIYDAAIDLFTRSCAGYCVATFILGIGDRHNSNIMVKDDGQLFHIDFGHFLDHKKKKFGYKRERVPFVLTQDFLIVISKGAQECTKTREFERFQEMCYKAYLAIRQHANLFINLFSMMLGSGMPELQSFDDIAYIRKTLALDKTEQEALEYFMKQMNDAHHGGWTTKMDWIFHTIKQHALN
T1 sequence (P27986 whole entry partner): as the sequence (P27986 whole entry partner) above

With `Nc1cc(C(F)(F)F)c(-c2cc(C3(S(=O)(=O)c4ccccc4)CC3)nc(N3CCOCC3)n2)cn1` [Compound S-25], the IC50 is 26 nM in test [1] (setting [5]); 67 nM in test [2]; 217 nM in test [3]; 1000 to 3000 nM in the test on NIH3T3 cells (Mus musculus, NIH3T3, 72 h); 1930 nM on PI3K-γ kinase (p110γ); 324 nM in the test on T47D cells (Homo sapiens, T47D).

`CS(=O)(=O)C(F)(F)c1cc(-c2cnc(N)cc2C(F)(F)F)nc(N2CCOCC2)n1` [Compound S-53]: the IC50 in test [1] (setting [5]) is 33 nM; in test [2], 516 nM; in test [3], 1550 nM; in the test with NIH3T3 cells (Mus musculus, NIH3T3, 72 h) it was 1000 to 3000 nM; on PI3K-γ kinase (p110γ) it was 287 nM; in the test with MCF-7 cells, 408 nM.

For the compound `Nc1cc(C(F)(F)F)c(-c2cc(C3(S(=O)(=O)c4cccc(F)c4)CC3)nc(N3CCOCC3)n2)cn1` [Compound S-57, 5-(6-(1-(3-fluorophenylsulfonyl)cyclopropyl)-2-morpholinopyrimidin-4-yl)-4-(trifluoromethyl)pyridin-2-amine], the IC50 in test [1] (setting [5]) is 18 nM; in test [2], 62 nM; in test [3] it was 284 nM; with NIH3T3 cells (Mus musculus, NIH3T3, 72 h) it was 1000 to 3000 nM; at PI3K-γ kinase (p110γ), 236 nM; with MCF-7 cells it was 286 nM. In the test on T47D cells (Homo sapiens, T47D), the IC50 came out at 242 nM.

Regarding `CS(=O)(=O)NC1(c2cc(-c3cnc(N)cc3C(F)(F)F)nc(N3CCOCC3)n2)CC1` [Compound S-24, N-(1-(6-(6-amino-4-(trifluoromethyl)pyridin-3-yl)-2-morpholinopyrimidin-4-yl)cyclopropyl)methanesulfon amide], the IC50 in test [1] (setting [5]) is 10 nM; in test [2] it was 85 nM; in test [3], 376 nM; with NIH3T3 cells (Mus musculus, NIH3T3, 72 h), 5000 to 10000 nM; at PI3K-γ kinase (p110γ), 291 nM; with T47D cells (Homo sapiens, T47D), 305 nM.

Regarding `C[C@H]1COCCN1c1nc(-c2cnc(N)cc2C(F)(F)F)cc(C2(S(C)(=O)=O)CC2)n1` [Compound S-6], the IC50 is 16 nM in test [1] (setting [5]); 1000 to 3000 nM with NIH3T3 cells (Mus musculus, NIH3T3, 72 h); 164 nM at PI3K-γ kinase (p110γ); 112 nM in the test with MCF-7 cells; 129 nM in the test on T47D cells (Homo sapiens, T47D).

Regarding `CN(C1(c2cc(-c3cnc(N)cc3C(F)(F)F)nc(N3CCOCC3)n2)CC1)S(C)(=O)=O` [Compound S-14, N-(1-(6-(6-amino-4-(trifluoromethyl)pyridin-3-yl)-2-morpholinopyrimidin-4-yl)cyclopropyl)-N-methylmethanesulfonamide], the IC50 in test [1] (setting [5]) is 13 nM; in test [3], 1120 nM; in the test on NIH3T3 cells (Mus musculus, NIH3T3, 72 h), 1000 to 3000 nM; in the test with MCF-7 cells, 267 nM; with T47D cells (Homo sapiens, T47D) it was 278 nM.

On to `CC(C)(O)c1cc(-c2cnc(N)cc2C(F)(F)F)nc(N2CCOCC2)n1` [Compound S-50, 2-(6-(6-amino-4-(trifluoromethyl)pyridin-3-yl)-2-morpholin-4-yl)propan-2-ol], for which the IC50 was 39 nM in test [1] (Table 2, read-out: PI3K-α/nM (IC50 of inhibitory activity against PI3K-α kinase)); 1000 to 3000 nM in the test on NIH3T3 cells (72 h); 39 nM in test [4]; 449 nM with T47D cells.
